Results taken from ChEMBL document CHEMBL5649169 (ChemMedChem, 2018).

How the values were obtained:
[1] = molecular target: Serine/threonine-protein kinase PAK 2 (Homo sapiens) (UniProt Q13177)
[2] = molecular target: Calcium load-activated calcium channel (Homo sapiens) (UniProt Q9UM00)
[3] = molecular target: Cleavage and polyadenylation specificity factor subunit 6 (Homo sapiens) (UniProt Q16630)
[4] = molecular target: Small ribosomal subunit protein uS15 (Homo sapiens) (UniProt P62277)
[5] = molecular target: Propionyl-CoA carboxylase alpha chain, mitochondrial (Homo sapiens) (UniProt P05165)
[6] = molecular target: AP-3 complex subunit sigma-1 (Homo sapiens) (UniProt Q92572)
[7] = molecular target: Small ribosomal subunit protein eS10 (Homo sapiens) (UniProt P46783)
[8] = molecular target: Epithelial discoidin domain-containing receptor 1 (Homo sapiens) (UniProt Q08345)
[9] = molecular target: Large ribosomal subunit protein uL3 (Homo sapiens) (UniProt P39023)
[10] = molecular target: Stomatin-like protein 2, mitochondrial (Homo sapiens) (UniProt Q9UJZ1)
[11] = molecular target: TANK-binding kinase 1-binding protein 1 (Homo sapiens) (UniProt A7MCY6)
[12] = molecular target: Tripeptidyl-peptidase 1 (Homo sapiens) (UniProt O14773)
[13] = molecular target: MICOS complex subunit MIC19 (Homo sapiens) (UniProt Q9NX63)
Chain of MICOS complex subunit MIC19 (Homo sapiens) (Q9NX63 whole entry, one chain of several): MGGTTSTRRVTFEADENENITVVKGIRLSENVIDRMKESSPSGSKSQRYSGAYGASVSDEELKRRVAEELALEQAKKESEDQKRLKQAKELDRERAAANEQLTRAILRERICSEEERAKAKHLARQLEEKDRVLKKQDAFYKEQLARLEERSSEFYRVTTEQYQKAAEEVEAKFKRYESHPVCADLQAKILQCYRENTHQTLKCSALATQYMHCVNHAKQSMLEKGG

[14] = molecular target: Aldehyde dehydrogenase X, mitochondrial (Homo sapiens) (UniProt P30837)
[15] = molecular target: ADP-ribosylation factor-like protein 1 (Homo sapiens) (UniProt P40616)
[16] = molecular target: Small ribosomal subunit protein uS3 (Homo sapiens) (UniProt P23396)
[17] = molecular target: Protein S100-A11 (Homo sapiens) (UniProt P31949)
[18] = molecular target: Coatomer subunit gamma-1 (Homo sapiens) (UniProt Q9Y678)
[19] = molecular target: Tetratricopeptide repeat protein 14 (Homo sapiens) (UniProt Q96N46)
[20] = molecular target: Rho guanine nucleotide exchange factor 2 (Homo sapiens) (UniProt Q92974)
[21] = molecular target: Mitogen-activated protein kinase kinase kinase 4 (Homo sapiens) (UniProt Q9Y6R4)
Chain of Mitogen-activated protein kinase kinase kinase 4 (Homo sapiens) (Q9Y6R4 whole entry): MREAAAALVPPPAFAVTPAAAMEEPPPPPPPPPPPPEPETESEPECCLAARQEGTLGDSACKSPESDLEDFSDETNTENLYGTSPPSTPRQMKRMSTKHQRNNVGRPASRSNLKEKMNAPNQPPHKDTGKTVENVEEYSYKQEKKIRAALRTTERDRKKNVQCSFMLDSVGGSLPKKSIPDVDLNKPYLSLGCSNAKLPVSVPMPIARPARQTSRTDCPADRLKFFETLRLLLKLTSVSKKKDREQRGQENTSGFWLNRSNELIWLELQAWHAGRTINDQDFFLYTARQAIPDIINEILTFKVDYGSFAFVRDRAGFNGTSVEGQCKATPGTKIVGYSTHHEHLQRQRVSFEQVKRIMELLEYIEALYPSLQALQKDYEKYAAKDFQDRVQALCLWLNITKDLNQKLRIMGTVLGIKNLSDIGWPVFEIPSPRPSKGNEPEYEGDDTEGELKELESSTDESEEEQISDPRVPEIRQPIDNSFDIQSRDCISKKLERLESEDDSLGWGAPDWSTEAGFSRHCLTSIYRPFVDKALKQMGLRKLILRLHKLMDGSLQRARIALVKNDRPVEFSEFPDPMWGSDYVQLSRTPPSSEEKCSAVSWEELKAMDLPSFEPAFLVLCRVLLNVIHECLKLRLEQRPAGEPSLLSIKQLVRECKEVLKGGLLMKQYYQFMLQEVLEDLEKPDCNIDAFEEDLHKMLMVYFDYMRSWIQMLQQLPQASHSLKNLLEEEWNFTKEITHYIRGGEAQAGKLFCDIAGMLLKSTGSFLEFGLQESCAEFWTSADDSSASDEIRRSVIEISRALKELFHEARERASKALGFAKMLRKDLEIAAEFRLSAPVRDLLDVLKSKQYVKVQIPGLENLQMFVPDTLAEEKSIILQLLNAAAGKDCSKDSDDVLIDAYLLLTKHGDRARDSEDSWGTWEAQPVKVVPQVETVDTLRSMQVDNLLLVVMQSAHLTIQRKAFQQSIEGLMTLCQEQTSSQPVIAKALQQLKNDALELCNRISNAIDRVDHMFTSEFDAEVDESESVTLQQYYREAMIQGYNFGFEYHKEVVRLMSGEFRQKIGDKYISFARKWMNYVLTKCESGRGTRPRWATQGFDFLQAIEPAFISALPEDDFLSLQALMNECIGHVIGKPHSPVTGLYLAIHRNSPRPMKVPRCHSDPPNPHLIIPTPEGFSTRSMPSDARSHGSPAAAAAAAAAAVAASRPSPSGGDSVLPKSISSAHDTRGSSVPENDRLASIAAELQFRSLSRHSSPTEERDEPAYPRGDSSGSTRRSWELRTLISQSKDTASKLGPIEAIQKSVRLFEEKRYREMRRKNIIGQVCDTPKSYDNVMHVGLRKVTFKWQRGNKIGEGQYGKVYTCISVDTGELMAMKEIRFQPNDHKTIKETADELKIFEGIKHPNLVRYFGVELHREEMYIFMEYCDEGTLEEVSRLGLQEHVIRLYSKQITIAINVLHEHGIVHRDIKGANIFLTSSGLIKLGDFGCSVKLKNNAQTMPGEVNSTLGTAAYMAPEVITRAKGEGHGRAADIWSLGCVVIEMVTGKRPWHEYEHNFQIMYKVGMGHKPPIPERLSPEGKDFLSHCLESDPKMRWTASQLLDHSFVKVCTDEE

[22] = molecular target: Transmembrane protein 33 (Homo sapiens) (UniProt P57088)
[23] = molecular target: Poly(rC)-binding protein 1 (Homo sapiens) (UniProt Q15365)
[24] = molecular target: Replication factor C subunit 3 (Homo sapiens) (UniProt P40938)
Fascin (Homo sapiens) = Fascin (Homo sapiens) (UniProt Q16658)
[25] = molecular target: Cytochrome c oxidase subunit 2 (Homo sapiens) (UniProt P00403)
[26] = molecular target: Serine/threonine-protein kinase D2 (Homo sapiens) (UniProt Q9BZL6)
[27] = molecular target: Carbamoyl-phosphate synthase [ammonia], mitochondrial (Homo sapiens) (UniProt P31327)
[28] = molecular target: ATP synthase F(0) complex subunit k, mitochondrial (Homo sapiens) (UniProt Q96IX5)
Chain of ATP synthase F(0) complex subunit k, mitochondrial (Homo sapiens) (Q96IX5 whole entry, one chain of several): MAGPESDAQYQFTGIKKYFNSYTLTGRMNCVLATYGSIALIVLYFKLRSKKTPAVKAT

[29] = molecular target: Interleukin enhancer-binding factor 3 (Homo sapiens) (UniProt Q12906)
[30] = molecular target: TRAF family member-associated NF-kappa-B activator (Homo sapiens) (UniProt Q92844)
[31] = molecular target: Mitogen-activated protein kinase kinase kinase 11 (Homo sapiens) (UniProt Q16584)
Chain of Mitogen-activated protein kinase kinase kinase 11 (Homo sapiens) (Q16584 whole entry, looked up): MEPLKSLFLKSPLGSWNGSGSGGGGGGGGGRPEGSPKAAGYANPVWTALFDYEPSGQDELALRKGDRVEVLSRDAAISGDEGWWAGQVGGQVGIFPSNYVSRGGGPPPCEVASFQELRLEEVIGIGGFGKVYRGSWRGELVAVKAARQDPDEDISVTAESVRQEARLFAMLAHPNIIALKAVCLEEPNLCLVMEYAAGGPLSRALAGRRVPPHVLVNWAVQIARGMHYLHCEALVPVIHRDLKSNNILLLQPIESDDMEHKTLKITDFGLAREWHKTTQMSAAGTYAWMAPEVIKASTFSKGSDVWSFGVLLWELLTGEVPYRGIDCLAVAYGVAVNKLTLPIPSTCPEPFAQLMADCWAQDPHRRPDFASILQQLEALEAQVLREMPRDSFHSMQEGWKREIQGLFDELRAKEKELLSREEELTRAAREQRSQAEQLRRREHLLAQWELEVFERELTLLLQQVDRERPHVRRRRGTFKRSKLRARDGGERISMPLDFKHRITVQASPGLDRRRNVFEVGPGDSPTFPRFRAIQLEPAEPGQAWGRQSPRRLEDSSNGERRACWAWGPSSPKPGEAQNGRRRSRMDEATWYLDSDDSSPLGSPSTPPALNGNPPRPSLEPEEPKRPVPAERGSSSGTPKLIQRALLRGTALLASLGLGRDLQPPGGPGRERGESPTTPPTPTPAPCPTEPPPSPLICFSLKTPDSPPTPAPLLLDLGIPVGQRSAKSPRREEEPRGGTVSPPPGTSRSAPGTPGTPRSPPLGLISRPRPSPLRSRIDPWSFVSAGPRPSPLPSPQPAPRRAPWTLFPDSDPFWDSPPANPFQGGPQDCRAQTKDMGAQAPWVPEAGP

[32] = molecular target: Cytochrome c oxidase subunit 5B, mitochondrial (Homo sapiens) (UniProt P10606)
[33] = molecular target: Protein kinase C delta type (Homo sapiens) (UniProt Q05655)
[34] = molecular target: H/ACA ribonucleoprotein complex subunit DKC1 (Homo sapiens) (UniProt O60832)
[35] = molecular target: SWI/SNF complex subunit SMARCC2 (Homo sapiens) (UniProt Q8TAQ2)
Chain of SWI/SNF complex subunit SMARCC2 (Homo sapiens) (Q8TAQ2 whole entry, one chain of several): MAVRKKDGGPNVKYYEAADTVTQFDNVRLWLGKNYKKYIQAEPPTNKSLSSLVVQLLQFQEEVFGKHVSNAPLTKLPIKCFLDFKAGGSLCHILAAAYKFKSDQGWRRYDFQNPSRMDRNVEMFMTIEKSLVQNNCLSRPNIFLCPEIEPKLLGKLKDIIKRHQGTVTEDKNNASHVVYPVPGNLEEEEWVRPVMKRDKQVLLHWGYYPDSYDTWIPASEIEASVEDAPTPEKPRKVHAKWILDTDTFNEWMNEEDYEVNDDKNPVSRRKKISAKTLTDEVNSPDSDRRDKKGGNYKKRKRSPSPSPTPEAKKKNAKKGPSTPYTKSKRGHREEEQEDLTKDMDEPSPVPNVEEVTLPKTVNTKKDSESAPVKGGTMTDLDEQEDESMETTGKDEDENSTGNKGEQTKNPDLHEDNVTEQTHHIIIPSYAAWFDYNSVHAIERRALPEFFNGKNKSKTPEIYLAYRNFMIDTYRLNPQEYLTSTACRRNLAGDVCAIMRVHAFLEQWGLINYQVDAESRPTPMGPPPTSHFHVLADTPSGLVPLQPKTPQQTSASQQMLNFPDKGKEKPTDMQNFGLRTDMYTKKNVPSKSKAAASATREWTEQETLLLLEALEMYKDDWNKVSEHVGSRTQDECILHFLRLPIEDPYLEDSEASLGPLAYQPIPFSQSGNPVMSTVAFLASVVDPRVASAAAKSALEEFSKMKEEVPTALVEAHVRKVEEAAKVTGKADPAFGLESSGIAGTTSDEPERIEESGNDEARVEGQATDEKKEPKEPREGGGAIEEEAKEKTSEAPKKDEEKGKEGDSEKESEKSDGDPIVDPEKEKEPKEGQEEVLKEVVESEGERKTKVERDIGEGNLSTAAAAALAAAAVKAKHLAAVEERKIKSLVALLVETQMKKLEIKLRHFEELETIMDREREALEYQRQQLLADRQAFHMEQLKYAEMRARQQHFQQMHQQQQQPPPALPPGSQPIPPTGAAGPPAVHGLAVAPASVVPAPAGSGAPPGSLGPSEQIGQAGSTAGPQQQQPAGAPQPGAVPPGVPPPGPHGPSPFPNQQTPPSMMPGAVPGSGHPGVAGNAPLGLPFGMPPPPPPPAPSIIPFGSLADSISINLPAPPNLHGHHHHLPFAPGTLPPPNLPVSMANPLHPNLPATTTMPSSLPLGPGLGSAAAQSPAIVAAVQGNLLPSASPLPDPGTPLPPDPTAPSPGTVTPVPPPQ

[36] = molecular target: Cytochrome c oxidase subunit 5A, mitochondrial (Homo sapiens) (UniProt P20674)
Chain of Cytochrome c oxidase subunit 5A, mitochondrial (Homo sapiens) (P20674 whole entry): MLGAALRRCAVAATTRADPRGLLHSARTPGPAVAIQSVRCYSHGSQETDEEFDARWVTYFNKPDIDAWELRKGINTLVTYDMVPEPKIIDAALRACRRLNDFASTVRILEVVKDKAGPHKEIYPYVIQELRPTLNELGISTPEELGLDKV

[37] = molecular target: Calreticulin (Homo sapiens) (UniProt P27797)
[38] = molecular target: tRNA N6-adenosine threonylcarbamoyltransferase (Homo sapiens) (UniProt Q9NPF4)
[39] = molecular target: Zinc finger CCCH-type antiviral protein 1 (Homo sapiens) (UniProt Q7Z2W4)
[40] = molecular target: Heterogeneous nuclear ribonucleoprotein A0 (Homo sapiens) (UniProt Q13151)
[41] = molecular target: Very-long-chain enoyl-CoA reductase (Homo sapiens) (UniProt Q9NZ01)
Chain of Very-long-chain enoyl-CoA reductase (Homo sapiens) (Q9NZ01 whole entry): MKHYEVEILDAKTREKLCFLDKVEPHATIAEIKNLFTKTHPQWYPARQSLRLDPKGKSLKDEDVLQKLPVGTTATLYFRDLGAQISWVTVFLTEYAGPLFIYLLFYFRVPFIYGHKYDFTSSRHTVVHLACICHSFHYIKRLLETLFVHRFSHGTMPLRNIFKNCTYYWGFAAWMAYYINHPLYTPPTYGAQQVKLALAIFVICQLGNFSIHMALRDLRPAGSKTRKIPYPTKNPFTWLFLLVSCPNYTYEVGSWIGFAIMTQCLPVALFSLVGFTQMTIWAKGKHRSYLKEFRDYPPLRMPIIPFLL

[42] = molecular target: Leucine-rich repeat-containing protein 47 (Homo sapiens) (UniProt Q8N1G4)
[43] = molecular target: Protein kinase C beta type (Homo sapiens) (UniProt P05771)
[44] = molecular target: Serine/threonine-protein kinase Nek3 (Homo sapiens) (UniProt P51956)
Also: assay method not described here.

Chain of Serine/threonine-protein kinase PAK 2 (Homo sapiens) (Q13177 whole entry): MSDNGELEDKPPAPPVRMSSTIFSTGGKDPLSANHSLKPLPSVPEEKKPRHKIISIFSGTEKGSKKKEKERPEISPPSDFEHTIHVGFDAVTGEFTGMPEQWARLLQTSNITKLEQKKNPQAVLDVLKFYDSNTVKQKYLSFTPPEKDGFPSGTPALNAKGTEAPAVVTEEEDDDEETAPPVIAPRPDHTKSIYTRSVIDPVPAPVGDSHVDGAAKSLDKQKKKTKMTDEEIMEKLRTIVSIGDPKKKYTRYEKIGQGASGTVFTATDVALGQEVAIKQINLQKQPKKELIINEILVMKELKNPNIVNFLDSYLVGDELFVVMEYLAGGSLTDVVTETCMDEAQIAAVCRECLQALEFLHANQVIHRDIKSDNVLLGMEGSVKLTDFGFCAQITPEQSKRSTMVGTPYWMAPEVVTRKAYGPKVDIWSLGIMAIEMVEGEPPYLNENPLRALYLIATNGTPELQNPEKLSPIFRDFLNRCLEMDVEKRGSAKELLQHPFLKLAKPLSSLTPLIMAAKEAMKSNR

Work on `Cc1ccc(C(=O)Nc2cccc(C(F)(F)F)c2)cc1Nc1nc(-c2cccnc2)nc2c1cnn2C` yielded an ED50 [1] of 19.6 µM, an ED50 [2] of 0.0219 µM and an ED50 [3] of 15 µM. It also gave an ED50 [4] of 2.21 µM, an ED50 [5] of 0.596 µM and an ED50 [6] of 116 µM. For the same molecule, the ED50 [7] was 0.042 µM, the ED50 [8] was 0.484 µM and the ED50 [9] was 2.64 µM. It also gave an ED50 [10] of 0.0199 µM, an ED50 [11] of 11.4 µM and an ED50 [12] of 3.39 µM. The ED50 [13] was 0.0271 µM, the ED50 [14] was 0.00943 µM and the ED50 [15] was 0.000716 µM. The ED50 [16] was 0.00386 µM, the ED50 [17] was 3.06 µM and the ED50 [18] was 0.164 µM. It also gave an ED50 [19] of 1.9 µM, an ED50 [20] of 9.51 µM and an ED50 [21] of 7.94 µM. The ED50 [22] was 4.89 µM, the ED50 [23] was 13 µM and the ED50 [24] was 0.485 µM. For the same molecule, the ED50 (Fascin (Homo sapiens)) was 0.0186 µM, the ED50 [25] was 0.449 µM and the ED50 [26] was 0.49 µM. It also gave an ED50 [27] of 11.8 µM, an ED50 [28] of 128 µM and an ED50 [29] of 9.39 µM. It also gave an ED50 [30] of 13.4 µM, an ED50 [31] of 0.176 µM and an ED50 [32] of 39.4 µM. The ED50 [33] was 3.81 µM, the ED50 [34] was 3.14 µM and the ED50 [35] was 21.8 µM. The ED50 [36] was 3.62 µM, the ED50 [37] was 24.3 µM and the ED50 [38] was 7.56 µM. It also gave an ED50 [39] of 13.3 µM, an ED50 [40] of 4.39 µM and an ED50 [41] of 3.86 µM. For the same molecule, the ED50 [42] was 0.0207 µM, the ED50 [43] was 10.9 µM and the ED50 [44] was 4.18 µM.

Work on `Cc1ccc(C(=O)Nc2cccc(C(F)(F)F)c2)cc1Nc1nc(-c2cccnc2)nc2nn(C)cc12` yielded an ED50 [1] of 42.5 µM, an ED50 [2] of 0.281 µM and an ED50 [3] of 0.349 µM. It also gave an ED50 [4] of 0.00657 µM, an ED50 [5] of 7.07 µM and an ED50 [6] of 2.47 µM. For the same molecule, the ED50 [7] was 0.0425 µM, the ED50 [8] was 0.136 µM and the ED50 [9] was 10.4 µM. The ED50 [10] was 0.0386 µM, the ED50 [11] was 0.06 µM and the ED50 [12] was 5310 µM. For the same molecule, the ED50 [13] was 0.0144 µM, the ED50 [14] was 0.0072 µM and the ED50 [15] was 2.85 µM. For the same molecule, the ED50 [16] was 0.0406 µM, the ED50 [17] was 30.9 µM and the ED50 [18] was 2.75 µM. It also gave an ED50 [19] of 2.32 µM, an ED50 [20] of 0.0484 µM and an ED50 [21] of 0.05 µM. For the same molecule, the ED50 [22] was 0.0053 µM, the ED50 [23] was 0.053 µM and the ED50 [24] was 0.0505 µM. It also gave an ED50 (Fascin (Homo sapiens)) of 0.348 µM, an ED50 [25] of 0.153 µM and an ED50 [26] of 0.0468 µM. The ED50 [27] was 0.188 µM, the ED50 [28] was 0.0812 µM and the ED50 [29] was 0.0174 µM. For the same molecule, the ED50 [30] was 0.0508 µM, the ED50 [31] was 5.25 µM and the ED50 [32] was 15 µM. It also gave an ED50 [33] of 0.000136 µM, an ED50 [34] of 5.99 µM and an ED50 [35] of 0.0058 µM. It also gave an ED50 [36] of 3250 µM, an ED50 [37] of 24.5 µM and an ED50 [38] of 8.47 µM. It also gave an ED50 [39] of 0.0483 µM, an ED50 [40] of 0.0174 µM and an ED50 [41] of 1.31 µM. The ED50 [42] was 0.00913 µM, the ED50 [43] was 0.875 µM and the ED50 [44] was 10.7 µM.
